Source: PMC9500072, “Topical application of an irreversible small molecule inhibitor of lysyl oxidases ameliorates skin scarring and fibrosis” (Nature Communications, 2022)
“And” between values parts separate entries of the source, which are not always exact repeats. Equal entries are not always repeated. Where two headings read alike, the source gives them in different places.

What was measured:
Human Recombinant MAO-A = target: T1, Human Recombinant MAO-A (Homo sapiens, UniProt P21397); assay: Amine oxidase inhibition profile, MAO-A; type: biochemical
T1 sequence (P21397 1-527): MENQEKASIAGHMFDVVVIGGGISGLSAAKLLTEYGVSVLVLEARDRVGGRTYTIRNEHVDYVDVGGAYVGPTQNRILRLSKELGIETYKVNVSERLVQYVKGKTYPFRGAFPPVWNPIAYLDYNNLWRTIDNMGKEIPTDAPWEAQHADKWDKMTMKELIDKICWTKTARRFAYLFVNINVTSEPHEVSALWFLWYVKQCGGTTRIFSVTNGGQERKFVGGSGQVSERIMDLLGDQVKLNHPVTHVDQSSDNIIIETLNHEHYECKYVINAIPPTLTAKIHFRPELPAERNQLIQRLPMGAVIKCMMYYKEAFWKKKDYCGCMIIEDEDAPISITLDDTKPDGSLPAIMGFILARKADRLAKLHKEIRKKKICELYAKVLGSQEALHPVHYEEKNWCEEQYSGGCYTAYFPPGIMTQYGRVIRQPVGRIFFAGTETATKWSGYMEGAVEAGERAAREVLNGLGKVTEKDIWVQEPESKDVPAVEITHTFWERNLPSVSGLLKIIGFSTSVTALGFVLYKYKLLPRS
Description: Supplem entary Materi als:
Supplementary Table S1: Amine oxidase inhibition profile of PXS -4787, PXS-6302 and
Supplementary Table S2: Perm eability profile of PXS -6302.

[1] = test system: bleomycin-induced skin fibrosis; assay: Bleomycin-induced skin fibrosis in mice; type: in vivo, C57BL/6 mice; design: Skin LOX activity: scale not given here
Method: With a pharmacokinetic and pharmacodynamic profile supportive of the potential as a potent topical anti-fibrotic treatment, we next moved to evaluate the in vivo efficacy of PXS-6302. Intradermal injections of bleomycin on alternate days for three weeks induces fibrosis[21],[22]. […] In this model, starting from Day 3 and continuing until Day 20, bleomycin-dosed mice (0.1U, alternate days), were treated once daily topically with 0% (vehicle) or 1.5% PXS-6302 oil in water cream (2 ×100 μL applications at a 10-min interval). […] As bleomycin also stimulates the expression of degrading enzymes such as matrix metalloproteases, the significant drop in hydroxyproline and immature crosslinks could be related to both the reduced production as well as the accelerated degradation of these matrix proteins.
Cell pellets or isolated tissue samples were completely hydrolyzed in 1.5 mL 6 M hydrochloric acid for 24 h at 105 °C. After complete hydrolysis, samples were dried using a vacuum dryer and reconstituted using 200 µL MilliQ water. The sample clean-up was performed using solid-phase extraction method which uses C18 and SCX solid-phase extraction cartridges for sample purification. The samples were run on UPLC-MS-MS (Mass Spectrometer: Thermo Scientific TSQ Endura Triple quadrupole, UPLC: Thermo Scientific Dionex UltiMate 3000) using Agilent RRHD SB-C18,2.1x50mm,1.8um analytical column and solvent A: 10 mM ammonium formate, 0.1% formic acid, 0.1% HFBA in H2O and solvent B: 10 mM ammonium formate, 0.1% formic acid, 0.1% HFBA in MeOH and analyzed as previously described. Limits of detection are listed in Supplementary Table S4.
8–10-week old C57BL/6 mice (n = 10 each group) were used to induce skin fibrosis. Bleomycin (Bleomycin sulfate from Streptomyces verticillicus, Euroasia) dry powder 1.5 IU/mg was reconstituted in saline at 2 IU/ml concentration. Starting on day 0 and continuing on alternate days thereafter, animals received subcutaneous injection of Bleomycin (0.1 IU in 50 µL volume) and/or saline on the right flank. For each animal, each dose was injected at a single site. The injections were continued for 20 days throughout the study. Starting from day three, vehicle cream or vehicle plus drug cream were applied topically once a daily treatment to a 2 cm × 2 cm area on the right dorsal flank of the animal for 20 days. On Day 21, all animals were euthanized and the skin tissue was collected for further histopathological analysis. The skin tissue was fixed in 4% PFA and sectioned skin was stained with Masson’s Trichrome, Collagen I and LOX and used to assess dermal fibrosis. Masson’s Trichrome was used to assess fibrotic index. Collagen Stain was subjectively scored for intensity as compared to control tissue. LOX Stain was subjectively scored as stain accumulation compared to control tissue. All images were assessed by assessors blinded to the treatment group. Composite skin/immunohistochemistry scoring tables used are in the Supplementary Information (Supplementary Tables S5, S6).

[2] = Systemic exposure in rat at 1000 mg/kg/day; type: in vivo; conditions: daily for 1 week
Adenosine A2A = Adenosine A2A (Homo sapiens, UniProt P29274); assay: Eurofins panel 200610; type: binding
Adrenergic α1A = Adrenergic α1A (Rattus norvegicus, UniProt P43140); assay: Eurofins panel 203100; type: binding
Adrenergic α2A = Adrenergic α2A (Homo sapiens, UniProt P08913); assay: Eurofins panel 203630; type: binding
Endothelin ETA = Endothelin ETA (Homo sapiens, UniProt P25101); assay: Eurofins panel 224010; type: binding
Glucocorticoid = Glucocorticoid (Homo sapiens, UniProt P04150); assay: Eurofins panel 232030; type: binding
Muscarinic M1 = Muscarinic M1 (Homo sapiens, UniProt P11229); assay: Eurofins panel 252610; type: binding
Opiate µ(OP3, MOP) = Opiate µ(OP3, MOP) (Homo sapiens, UniProt P35372); assay: Eurofins panel 260410; type: binding
[3] = read-out: Recombinant MAO-A IC50
[4] = […] cream topically once daily, Day 3 to Day 20

Sequence of Adrenergic α2A (P08913 whole entry): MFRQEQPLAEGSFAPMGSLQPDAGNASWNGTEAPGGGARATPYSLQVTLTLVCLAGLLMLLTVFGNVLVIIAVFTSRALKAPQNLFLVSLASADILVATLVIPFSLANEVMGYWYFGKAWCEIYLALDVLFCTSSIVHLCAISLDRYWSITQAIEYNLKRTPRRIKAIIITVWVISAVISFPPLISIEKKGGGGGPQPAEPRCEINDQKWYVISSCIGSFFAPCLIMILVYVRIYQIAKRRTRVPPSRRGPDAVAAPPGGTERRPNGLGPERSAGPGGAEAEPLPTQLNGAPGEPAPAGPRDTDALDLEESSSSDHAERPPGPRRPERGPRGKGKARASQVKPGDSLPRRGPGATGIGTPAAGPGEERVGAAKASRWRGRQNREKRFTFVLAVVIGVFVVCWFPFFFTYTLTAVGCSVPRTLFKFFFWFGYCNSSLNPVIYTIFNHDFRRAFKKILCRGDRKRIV
Sequence of Adrenergic α1A (P43140 whole entry): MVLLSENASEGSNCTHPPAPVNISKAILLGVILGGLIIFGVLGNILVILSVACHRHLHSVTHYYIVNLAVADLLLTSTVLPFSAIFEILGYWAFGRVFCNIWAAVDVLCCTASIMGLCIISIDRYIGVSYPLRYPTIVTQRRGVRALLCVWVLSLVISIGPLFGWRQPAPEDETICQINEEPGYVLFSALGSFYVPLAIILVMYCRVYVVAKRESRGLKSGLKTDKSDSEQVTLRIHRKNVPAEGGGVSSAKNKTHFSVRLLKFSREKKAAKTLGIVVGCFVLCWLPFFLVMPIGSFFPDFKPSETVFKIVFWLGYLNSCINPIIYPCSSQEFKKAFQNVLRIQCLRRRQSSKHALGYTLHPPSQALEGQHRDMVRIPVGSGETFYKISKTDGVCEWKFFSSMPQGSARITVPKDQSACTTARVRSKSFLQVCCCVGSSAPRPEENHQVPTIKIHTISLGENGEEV
Sequence of Opiate µ(OP3, MOP) (P35372 whole entry): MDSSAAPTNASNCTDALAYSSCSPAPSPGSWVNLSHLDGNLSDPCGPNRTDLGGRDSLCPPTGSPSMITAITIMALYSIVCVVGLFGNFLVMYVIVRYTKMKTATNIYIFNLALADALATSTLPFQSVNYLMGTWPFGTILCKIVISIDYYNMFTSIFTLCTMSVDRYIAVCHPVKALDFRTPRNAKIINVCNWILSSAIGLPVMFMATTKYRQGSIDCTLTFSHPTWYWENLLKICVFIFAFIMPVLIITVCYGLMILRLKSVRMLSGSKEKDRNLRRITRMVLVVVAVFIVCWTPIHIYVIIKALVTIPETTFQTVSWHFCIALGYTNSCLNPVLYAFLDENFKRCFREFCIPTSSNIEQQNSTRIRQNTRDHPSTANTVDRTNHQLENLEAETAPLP
Sequence of Glucocorticoid (P04150 whole entry): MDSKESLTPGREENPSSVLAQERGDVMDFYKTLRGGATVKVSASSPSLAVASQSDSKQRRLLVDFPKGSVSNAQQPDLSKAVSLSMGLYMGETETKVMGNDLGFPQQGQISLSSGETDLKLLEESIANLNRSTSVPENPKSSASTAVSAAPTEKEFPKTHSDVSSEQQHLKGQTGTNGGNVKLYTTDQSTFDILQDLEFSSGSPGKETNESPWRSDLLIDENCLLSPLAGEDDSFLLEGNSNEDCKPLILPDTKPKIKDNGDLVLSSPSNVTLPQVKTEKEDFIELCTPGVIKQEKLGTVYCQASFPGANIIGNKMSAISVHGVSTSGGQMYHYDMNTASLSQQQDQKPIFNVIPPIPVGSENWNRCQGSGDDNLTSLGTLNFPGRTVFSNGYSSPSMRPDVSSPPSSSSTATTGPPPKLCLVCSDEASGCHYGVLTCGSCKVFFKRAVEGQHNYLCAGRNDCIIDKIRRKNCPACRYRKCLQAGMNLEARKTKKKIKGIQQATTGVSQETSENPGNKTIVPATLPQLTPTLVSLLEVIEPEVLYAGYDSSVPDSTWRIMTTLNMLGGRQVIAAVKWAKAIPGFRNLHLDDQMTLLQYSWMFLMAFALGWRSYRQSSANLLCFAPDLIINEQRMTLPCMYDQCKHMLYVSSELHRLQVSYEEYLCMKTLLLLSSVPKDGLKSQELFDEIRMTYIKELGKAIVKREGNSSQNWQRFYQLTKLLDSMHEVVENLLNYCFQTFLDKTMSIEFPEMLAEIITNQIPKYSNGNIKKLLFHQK
Sequence of Muscarinic M1 (P11229 whole entry): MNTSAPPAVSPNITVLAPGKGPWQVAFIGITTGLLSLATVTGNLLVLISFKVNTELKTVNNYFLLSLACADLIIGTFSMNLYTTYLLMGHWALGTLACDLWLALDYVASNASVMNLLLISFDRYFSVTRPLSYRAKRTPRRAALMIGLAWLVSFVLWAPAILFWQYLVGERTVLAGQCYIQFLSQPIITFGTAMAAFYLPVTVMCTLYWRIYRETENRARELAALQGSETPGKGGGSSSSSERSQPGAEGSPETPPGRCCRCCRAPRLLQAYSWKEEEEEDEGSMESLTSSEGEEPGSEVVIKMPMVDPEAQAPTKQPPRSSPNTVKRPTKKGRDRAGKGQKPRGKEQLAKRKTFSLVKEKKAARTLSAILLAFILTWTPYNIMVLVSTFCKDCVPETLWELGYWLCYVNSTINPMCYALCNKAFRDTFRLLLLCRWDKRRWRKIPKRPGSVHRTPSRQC
Sequence of Endothelin ETA (P25101 21-427): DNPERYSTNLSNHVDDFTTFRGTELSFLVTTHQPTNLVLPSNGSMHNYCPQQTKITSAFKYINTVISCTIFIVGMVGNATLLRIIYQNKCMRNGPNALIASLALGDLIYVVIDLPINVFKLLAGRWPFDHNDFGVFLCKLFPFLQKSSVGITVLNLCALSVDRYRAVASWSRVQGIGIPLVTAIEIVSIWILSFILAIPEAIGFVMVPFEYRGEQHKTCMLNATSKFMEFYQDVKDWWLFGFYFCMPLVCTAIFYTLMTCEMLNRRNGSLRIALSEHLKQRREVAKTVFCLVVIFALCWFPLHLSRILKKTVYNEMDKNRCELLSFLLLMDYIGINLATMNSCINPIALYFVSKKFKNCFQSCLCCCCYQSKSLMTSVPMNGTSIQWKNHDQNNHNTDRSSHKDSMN
Sequence of Adenosine A2A (P29274 whole entry): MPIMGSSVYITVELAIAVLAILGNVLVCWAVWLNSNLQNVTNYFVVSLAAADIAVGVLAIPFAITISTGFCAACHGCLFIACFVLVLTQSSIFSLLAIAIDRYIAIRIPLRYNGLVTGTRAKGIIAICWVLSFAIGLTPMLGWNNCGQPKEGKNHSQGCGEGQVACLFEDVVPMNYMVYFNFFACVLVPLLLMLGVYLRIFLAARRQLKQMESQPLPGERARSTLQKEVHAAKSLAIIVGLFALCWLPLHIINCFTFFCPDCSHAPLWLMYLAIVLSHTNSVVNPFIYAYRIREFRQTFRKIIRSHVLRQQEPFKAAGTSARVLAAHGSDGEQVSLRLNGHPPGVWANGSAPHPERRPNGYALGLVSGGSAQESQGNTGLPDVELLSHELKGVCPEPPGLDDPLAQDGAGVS

With `NC/C=C(\F)CS(=O)(=O)c1ccccc1` [PXS-4787] the IC50 (Human Recombinant MAO-A; [3]) was over 30 µM, the composite skin score ([1]; […] cream topically once daily) was “Reduced” and the “immunohistochemistry COL1 score” value ([1]; […] cream topically once daily) was “decreas ed”. The “immunohistochemistry LOX score” value ([1]; […] cream topically once daily) was “Decreased”, the systemic levels [2] was “negligible” and the inhibition at 10 µM (Adenosine A2A; 10 µM) was 15%. For the same compound, the inhibition at 10 µM (Adrenergic α1A; 10 µM) was 1%, the inhibition at 10 µM (Adrenergic α2A; 10 µM) was 1% and the inhibition at 10 µM (Endothelin ETA; 10 µM) was 4%. The inhibition at 10 µM (Glucocorticoid; 10 µM) was 3%, the inhibition at 10 µM (Muscarinic M1; 10 µM) was 56% and the inhibition at 10 µM (Opiate µ(OP3, MOP); 10 µM) was 3%.
For `NC/C=C(\F)C(F)(F)S(=O)(=O)c1ccccc1` [PXS-6302], the IC50 (Human Recombinant MAO-A) was over 30 µM, the “Skin LOX activity” value ([1]; Bleo + PXS-6302, individual animals) was 0.8656 and 1.07 and 1.02 and 1.046 and 0.9944 and 1.027 and 1.022 and 1.017 and 1.088 and the Skin thickness ([1]; PXS-6302, individual animals) was 0.34 mm and 0.36 mm and 0.41 mm and 0.33 mm and 0.39 mm and 0.38 mm and 0.4 mm. The composite skin score ([1]; […] cream topically once daily) was “significantly reduced”, the “immunohistochemistry COL1 score” value ([1]; […] cream topically once daily) was “significantly reduced” and the “immunohistochemistry LOX score” value ([1]; […] cream topically once daily) was “significantly reduced”. For the same compound, the “LOX activity in skin” value [1, 4] was “significant reduction”, the “fibrosis as assessed by skin thickness” value [1, 4] was “significantly reduced” and the hydroxyproline content [1, 4] was “reduced”. For the same compound, the “immature crosslinking (DHLNL and HLNL)” value [1, 4] was “reduced”, the systemic levels [2] was “negligible” and the inhibition at 30 µM (Adenosine A2A; read-out: % Inh.) was -6%. It also gave an inhibition at 30 µM (Adrenergic α1A; read-out: % Inh.) of 3%, an inhibition at 30 µM (Adrenergic α2A; read-out: % Inh.) of 17% and an inhibition at 30 µM (Endothelin ETA; read-out: % Inh.) of 7%. For the same compound, the inhibition at 30 µM (Glucocorticoid; read-out: % Inh.) was 13%, the inhibition at 30 µM (Muscarinic M1; read-out: % Inh.) was 13% and the inhibition at 30 µM (Opiate µ(OP3, MOP); read-out: % Inh.) was 12%.
In the case of `N#CCCN` [BAPN, β-aminoproprionitrile, reference compound], the “Recombinant MAO-A pIC50” value (Human Recombinant MAO-A) is reported as under 4.5 and the IC50 (Human Recombinant MAO-A; [3]) is reported as over 30 µM.
